Measured values: US8932626B2, “Felbinac-containing transdermally absorbable preparation” (Teikoku Seiyaku Co., Ltd., priority 2009, dated 2015)

Columns and labels:
[1] = background art statement; cited from earlier work
[2] = In vitro rat skin permeability test (Test Example 1)
Experimental: The rat abdominal skin was exfoliated, the dermis side of the skin was directed to a side of a receptor layer, and its inside was filled with phosphate buffered saline. Water kept at 37° C. was circulated in a water jacket.

SMILES: O=C(O)Cc1ccc(-c2ccccc2)cc1 [Felbinac]
- solubility in various solvents [1]: very low

SMILES: CC(C(=O)O)c1cccc(C(=O)c2ccccc2)c1 (stereo not drawn) [ketoprofen]
- releasing of ketoprofen (permeated amount through excised rat skin) ([2]; Comparative Study (2), FIG. 3, patch with ketoprofen and lidocaine (Comparative Example 4) versus only ketoprofen (Comparative Example 3)): inhibited significantly
- releasing effect of the anti-inflammatory analgesic obtained by formulating lidocaine ([2]; summary of Comparative Studies (1) to (3)): not observed
